Laboratory results taken from US11357232B2, “Methods of improving soil health, growth and vigor of perennial grass communities” (Edaphix, LLC, priority 2013, dated 2022).

Assays:
[1] = tested on: invasive species including cheatgrass, dandelions, and perennial noxious weeds; assay: Plant community survey in area contaminated with copper from a copper smelter (Example 22); type: in vivo; details: soil copper contamination levels measured at various sites
Source text: (§5) The prevalence of various invasive species including cheatgrass, dandelions, and perennial noxious weeds (forbs) was observed and correlated with soil copper contamination levels measured at various sites.

[2] = tested on: dandelions; assay: Plant community response at Anaconda Smelter Superfund site; type: in vivo; details: where moderate to high levels of water soluble copper and zinc are measured in the soil
[3] = tested on: spotted knapweed; assay: as above; type: in vivo; details: gradient of water soluble copper and zinc in soil
[4] = tested on: native perennial grasses; details: in vivo
Source text: as §5

[5] = tested on: French marigold; details: in vivo; cited from earlier work
[6] = tested on: chlorophyllitic plants; assay: Photosynthetic disruption by glyphosate; type: in vivo
Procedure: Extensive research has documented that plants are often sensitive to relatively minute concentrations or exposures to unique synthetic compounds or combinations of naturally occurring elements, including micro-nutrients. For example, glyphosate (aka ROUNDUP®, a synthetic Monsanto product) is effective at causing photosynthetic disruption in chlorophyllitic plants at an application rate of as little as 0.75 pounds active ingredient per acre, which equates to only approximately 8 mg/square foot of application, equivalent to approximately 14 ppm application rate. The American Phytopathological Society (APS) reported that micronutrients are generally toxic when present in high amounts, although ‘high concentrations’ are not clearly defined, and little toxicity have been reported at exceptionally low micro-nutrient concentrations. This occurrence is known as micro-nutrient toxicity syndrome (MTS). […] In addition, plants can vary considerably from species to species in their susceptibility to nutrient toxicities. For example, Lee and others (1996) reported inducing seed geranium (Pelargonium x hortorum) micronutrient toxicity symptoms by applying nutrient solutions containing 0.5 mg/L B, Cu, or Zn, or as little as 0.25 mg/L Mo, in combination with nitrogen, phosphorus, and potassium. […]

[7] = tested on: chlorophyllitic plants; details: as little as; cited from earlier work
[8] = tested on: invasive plant species; assay: Hypothetical dose-response testing of invasive species on a rangeland site (Example 21); type: in vivo; details: for biomass reduction: zinc-sensitive invasive species
Procedure: In this example, a rangeland site has become colonized by three invasive species. From dose-response testing it can be determined that 2 of the invasive species can be controlled by boron fertilization while the third is tolerant of boron, but not zinc. Of the two boron-sensitive invasive plant species, one is intolerant to a soil solution level of 3 mg boron per liter, while the other is sensitive to 7 milligrams per liter.

[9] = tested on: seed geranium (Pelargonium x hortorum); details: in combination with nitrogen, phosphorus, and potassium; cited from earlier work
[10] = tested on: humans; details: U.S. EPA, 2005 carcinogen assessment guidelines; cited from earlier work
[11] = tested on: cheatgrass (Bromus tectorum); assay: Field trial of boron fertilization in existing perennial grass communities near Belgrade, Mont.; type: in vivo
Procedure: (§1) Field trials were established in existing perennial grass communities near Belgrade, Mont., with high levels of cheatgrass and dandelion invasion into existing perennial grasses to examine use of boron (elemental symbol: B) fertilization for weed control. Minute amounts of boron, in doses as low as 5 mg B/L (soluble) or 2-3 lbs B (dry) active ingredient per acre, were applied to the plots.
(§2) Over the same period of time dandelion cover decreased from a mean of 59% to 15%, and cheatgrass cover decreased from a mean of 47% to 1%, while perennial grass cover increased from 42% to 71%.
(§3) Formulation D, Using the boron-containing compound Na2B4O7.10 H20, the 0.5 mg/L soil concentration applied in the field experiment described in Example 1 was attained by adding 2.55 grams per 100 square foot. The 50 mg/L soil concentration was attained by adding 255 grams per 100 square feet. These concentrations were applied either dry or by dissolving the boron-containing compound in water and then applied as a liquid to field plots.

[12] = tested on: dandelion (Taraxacum officinale); assay: as above; type: in vivo; details: over 5 year period after a single application of boron fertilizer; decreased from a mean of 59%
Procedure: as §1, §2, §3

[13] = tested on: perennial grass (several species); assay: as above; type: in vivo; details: over 5 year period after a single application of boron fertilizer; increased from 42%
Procedure: as §1, §2, §3

[14] = tested on: cheatgrass seed; assay: Greenhouse petri dish cheatgrass seed germination experiment; type: in vivo, Bromus tectorum
Procedure: Greenhouse petri dish experiments were completed to evaluate the effect of minute concentrations of boron on cheatgrass seed germination. Treatment concentrations (in addition to a zero treatment control) ranged from 10 to 50 mg B/L dissolved in distilled water. […] A follow-up experiment, essentially repeating the previously described petri dish experiment, with inclusion of a treatment rate as low as 5 mg/L, was completed. It was observed that cheatgrass seeds germinated at the 5 mg/L concentration, with death of the seedlings occurring within 7 days of germination (data not shown).

[15] = tested on: Kentucky bluegrass (Poa pratensis); assay: Greenhouse pot study watered with boron solutions; type: in vivo; details: increasing boron concentrations
Source text: (§4) Greenhouse pot irrigation study, Bozeman, Mont. (FIG. 6).

[16] = tested on: cheatgrass (Bromus tectorum); assay: Greenhouse pot study watered with boron solutions; type: in vivo; details: increasing boron concentrations
Source text: as §4

[17] = tested on: dandelion (Taraxacum officinale); assay: Greenhouse pot study watered with boron solutions; type: in vivo
Source text: as §4

[18] = tested on: spotted knapweed (Centaurea maculosa); assay: Greenhouse pot study watered with boron solutions; type: in vivo
Source text: as §4

[19] = tested on: perennial grass; assay: Rangeland site five-year study, surface liquid boron applications (Example 4); type: in vivo; details: treated area
[20] = tested on: cheatgrass (Bromus tectorum); assay: Cheatgrass-affected rangeland site two-year study, surface liquid boron applications (Example 5); type: in vivo; details: treated rangeland site
Source text: At a cheatgrass-affected rangeland site plant cover over a two-year study period is shown in response to water soluble soil boron concentrations resulting from surface liquid boron applications. Perennial grass cover in the treated rangeland site was increased to between 60 and 70 percent cover while cheatgrass cover decreased and was less than 3% (FIG. 5A) while adjacent untreated rangeland had less perennial grass cover and more cheatgrass after 2 years. (Soil sampling of the 0-6 inch depth was performed annually over a five year period to determine the water soluble boron concentrations both in the treated and untreated areas (FIG. 5B). Transects were used to measure plant cover annually at sites co-located with soil sampling.

[21] = tested on: cheatgrass seed; assay: Benchtop seed germination in covered petri dishes with boron solutions (Example 8); type: in vivo, Bromus tectorum; details: boron 5 to 50 mg/L; 20 seeds; ten days after treatment
Procedure: Germination percentage of cheatgrass, dandelion, spotted knapweed and Kentucky bluegrass seed was measured ten (10) days after treatment with solutions of increasing boron concentration (FIG. 8). Cheatgrass appeared most sensitive to boron solution resulting in essentially 100% death of 20 cheatgrass seeds in covered petri dishes, when treated with solutions with boron concentration ranging from 5 to 50 mg/L. Control treatment using tap water successful germination percentage exceeded 56%.

[22] = tested on: cheatgrass, dandelion, spotted knapweed and Kentucky bluegrass seed; assay: as above; type: in vivo; details: boron concentrations reached 25 mg/L; ten days after treatment
Procedure: Germination percentage of cheatgrass, dandelion, spotted knapweed and Kentucky bluegrass seed was measured ten (10) days after treatment with solutions of increasing boron concentration (FIG. 8).

[23] = tested on: bluebunch wheatgrass (Pseudoroegenaria spicata); details: in vivo
Procedure: (§6) In a greenhouse pot study Kentucky bluegrass, bluebunch wheatgrass, cheatgrass, dandelion and spotted knapweed were grown from seed in potting soil for a period of approximately 26 weeks. Plants were watered with tap water for the first 24 weeks and then 3 times with boron solutions during the final 2 weeks of the study. Boron concentrations used were 5, 10, 25 and 50 mg B/L in addition to a tap water treatment and a commercial plant fertilizer solution.

[24] = tested on: bluebunch wheatgrass (Pseudoroegenaria spicata); assay: Greenhouse pot study watered with boron solutions; details: watered 3 times in final 2 weeks
Procedure: as §6

[25] = increasing boron concentrations
[26] = lowest boron solution concentration used, 5 mg B/L, watered 3 times in final 2 weeks

Compound: [Cu] [copper]
- occurrence of invasive species versus soil copper [1]: primarily observed at lower copper contamination sites
- occurrence of dandelions [2]: not found
- occurrence of spotted knapweed [3]: found growing in soils with low to high levels
- tolerance of native perennial grasses to soil copper [4]: tolerate higher copper soil levels
- concentration inducing micro-nutrient toxicity [5]: 4000 ng/mL

Compound: O=C(O)CNCP(=O)(O)O [glyphosate]
- effective application rate, equivalent per area ([6]; equates to 0.75 pounds active ingredient per acre): approximately 8 mg/square foot
- effective application rate, equivalent ([6]; equivalent to 0.75 pounds active ingredient per acre): approximately 14 ppm
- application rate effective at causing photosynthetic disruption [7]: 0.75 pounds active ingredient per acre

Compound: [Mn+2] [manganese]
- concentration inducing micro-nutrient toxicity [5]: 1000 ng/mL

Compound: [Mo] [molybdenum]
- concentration inducing micro-nutrient toxicity [5]: 5000 ng/mL

Compound: [Zn] [zinc]
- biomass reduction ([8]; 0.4 mg zinc per liter): 38%
- biomass reduction ([8]; 0.9 milligrams per liter): 89%
- occurrence of dandelions [2]: not found
- occurrence of spotted knapweed [3]: found growing in soils with low to high levels
- nutrient solution concentration inducing micronutrient toxicity symptoms [9]: 0.5 mg/L

Compound: borate salts
- carcinogenicity classification [10]: not likely to be carcinogenic to humans

Compound: boron
- emerging or mature cheatgrass plants in plots ([11]; following growing seasons, doses as low as 5 mg B/L or 2-3 lbs B per acre): near-total absence
- mean cheatgrass cover ([11]; over 5 year period after a single application of boron fertilizer, decreased from a mean of 47%): 1%
- mean dandelion cover [12]: 15%
- perennial grass cover [13]: 71%
- cheatgrass seed germination (observation) ([14]; 5 mg/L, follow-up experiment): germinated
- death of seedlings, time after germination ([14]; 5 mg/L, follow-up experiment): ≤ 7 days
- cheatgrass seed germination ([14]; 10 to 50 mg B/L in distilled water, after 14 days): zero
- cheatgrass seed germination ([14]; boron solution 10 mg/L, 14 days post treatment (FIG. 2B)): 0%
- plant health index (color and vigor) response [15]: declined in vigor
- plant health index (color and vigor) response [16]: declined in vigor
- plant health index (color and vigor) response [17, 25]: declined in vigor
- phytotoxic response [17, 26]: marked phytotoxicity
- plant health index (color and vigor) response [18, 25]: declined in vigor
- rate of decline in plant health compared with other species ([18]; increasing solution boron concentration): most rapid decline in plant health
- phytotoxic response [18, 26]: marked phytotoxicity
- perennial grass densities [19]: increase over time
- cheatgrass cover [20]: less than 3%
- death of cheatgrass seeds [21]: ~100%
- germination of any species [22]: Very little germination
- soil solution level to which invasive species is intolerant ([8]; first boron-sensitive invasive species): 3 mg boron per liter
- soil solution level to which invasive species is sensitive ([8]; second boron-sensitive invasive species): 7 milligrams per liter
- plant health index (color and vigor) response [23]: little change in plant health
- concentration inducing micro-nutrient toxicity [5]: 500 ng/mL
- tolerated boron concentration [24]: ≥ 50 mg B/L
